Experimental data reported in patent US20070027143A1, “Novel substituted 2,3-benzodiazepine derivatives” (priority 2003, published 2007).
Like-named read-outs stand apart in the source and are kept apart here.

How the values were obtained:
Assay type in all cases: in vivo
CD1 mice [1] = test: Anticonvulsant activity, maximal electroshock seizure (MES) test; conditions: Mus musculus, po.
CD1 mice [2] = test: Anticonvulsant activity, pentetrazole induced seizures; conditions: Mus musculus; po.; read-out: Pentetrazol ED50
How it was run: (§1)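 Oral dosing, 3 doses, 10 male CD1 mice/dose; convulsant given usually 60 min post-dose; endpoints clonic-tonic seizures and lethality.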

CD1 mice [3] = test: Anticonvulsant activity, strychnine induced seizures; conditions: Mus musculus; po.; read-out: Strychnine ED50
How it was run: as §1

CD1 mice [4] = test: Anticonvulsant activity, bemegride induced seizures; conditions: Mus musculus; po.; read-out: Bemegride ED50
How it was run: as §1

CD1 mice [5] = test: Anticonvulsant activity, bicuculline induced seizures; conditions: Mus musculus; po.; read-out: Bicuculline ED50
How it was run: as §1

CD1 mice [6] = test: Anticonvulsant activity, nicotine induced seizures; conditions: Mus musculus; po.
How it was run: as §1

CD1 mice [7] = test: Anticonvulsant activity, 3-mercapto-propionic acid induced seizures; conditions: Mus musculus; po.; read-out: 3-MPA ED50
How it was run: as §1

CD1 mice [8] = test: Muscle relaxant activity, inclined screen test; conditions: Mus musculus, ip
CD1 mice [9] = test: Muscle relaxant activity, rotarod test; conditions: Mus musculus, ip
Lewis rats [10] = test: Autoimmune encephalomyelitis model, neurological (clinical) symptoms; conditions: for Neurological symptoms (change, %): day 24 after immunization; for change in vivo at 15 mg/kg / change in vivo at 30 mg/kg / change in vivo at 1.875 mg/kg / change in vivo at 3.75 mg/kg / change in vivo at 7.5 mg/kg: Rattus norvegicus, ip, read-out: Neurological symptoms (change compared to controls, %)
Method: The compounds were administered intraperitoneally twice a day for 8 days, starting on day 10 after immunization and with an observation period until symptoms were present. 5-15 animals were used in each group. Their weights were 160-180 g (Lewis rats, female) and 180-220 g (Lewis rats, male). The activity of the compounds was determined according to the symptom score values, and compared to those of the control group (see Table 6). Histopathological investigations were carried out on the brain stem, the spinal cord, and the sciatic nerve (Gijbels et al., J. Clin. Invest. 94:2177 (1994)) using 5-10 animal/group.
(§2) Compounds of the invention were further investigated in the autoimmune encephalomyelitis model in rats as outlined in this description before, with the variance that 10 animals were used in each group, of weights 140-160 g (Lewis rats, female).

Lewis rats [11] = test: Autoimmune encephalomyelitis model, histological symptoms; conditions: day 24 after immunization
Method: 5-15 animals were used in each group. Their weights were 160-180 g (Lewis rats, female) and 180-220 g (Lewis rats, male). The activity of the compounds was determined according to the symptom score values, and compared to those of the control group (see Table 6). Histopathological investigations were carried out on the brain stem, the spinal cord, and the sciatic nerve (Gijbels et al., J. Clin. Invest. 94:2177 (1994)) using 5-10 animal/group.
as §2

CD1 mice [12] = test: Anti-tremor effect, oxotremorine induced tremor; conditions: for ED50: Mus musculus, po., Litchfield-Wilcoxon, limits in brackets, read-out: ED50, tremor induced by Oxotremorin 1 mg/kg ip.
CD1 mice [13] = test: Anti-tremor effect, GYKI 20039 induced tremor; conditions: Mus musculus; po., Litchfield-Wilcoxon, limits in brackets; read-out: ED50, tremor induced by GYKI 20039 10 mg/kg ip.
BN rats = test: Airway eosinophilia of ovalbumin sensitized, antigen challenged BN rats (BALF eosinophil count); conditions: 3.0 mg/kg po, 2 hours pre-challenge, mean ± SE
Text: Bronchial hyperresponsiveness (BHR) and airway eosinophilia (AEP) are characteristic features of bronchial asthma. BHR is typified by an exaggerated response to a wide variety of stimuli that can induce an increased resistance to airflow in the airways. AEP is a result of prolonged eosinophil infiltration, mast cell, and T cell activation in the airways. In actively (e.g., ovalbumin) immunized rats (e.g., Brown Norway [BN] strain), repeated sensitization followed by antigenic challenge results in lung eosinophilia and bronchial hyperresponsiveness to different spasmogens (e.g., acetylcholine). This is the most frequently employed model for studying potential anti-asthmatic effects of new chemical entities.
BN rats were actively immunized with allergen (ovalbumin). On day one, rats were sensitized with the subcutaneous administration of ovalbumin suspended in Al(OH)3 (2.5 μg ovalbumin +20 mg Al(OH)3 in 0.5 ml saline). Booster injections (same dose and same route) were given at day 14 and 21. Simultaneously at each occasion 0.25 ml of Bordatella pentussis vaccine was injected intraperitoneally. On day 28, animals were challenged by inhalation of the antigen (vaporized 1% OVA solution for 1 hour). Test compounds were administered orally 2 hours pre-challenge.
48 hours following challenge, they were sacrificed by an overdose of urethane (4-5 ml of 15% urethane given i.p.), bronchoalveolar lavage fluid (BALF) was obtained, and tracheae dissected from the animals. Eosinophil cell count (cells/ml BALF) was determined manually using a selective stain for eosinophils and counting the cells in a Buerker chamber. BHR was determined using tracheal rings suspended in an organ bath. After an equilibration period of 30 minutes, cumulative concentration response curves to acetylcholine were determined. Maximal response of control (unchallenged, non-treated) tracheal rings is obtained at 10^−3 M acetylcholine. The height of this response is defined as 100%. All other contractions are expressed as a percentage and related to the control response.

[14] = 0.5 h, 30′, read-out: MES 30′ ED50
[15] = 1 h, 60 min before induction, read-out: MES (MES 60′) ED50
[16] = 15 mg/kg ip., female rats, 0-8 day
[17] = 15 mg/kg ip., female rats, 0-14 day
[18] = 15 mg/kg ip., male rats, 0-8 day
[19] = 15 mg/kg ip., male rats, 0-14 day

## CC(=O)N1N=C(c2ccc(N)cc2)c2cc3c(cc2C[C@H]1C)OCO3 [GYKI 53773, (R)-7-acetyl-5-(4-aminophenyl)-8,9-dihydro-8-methyl-7H-1,3-dioxolo[4,5-h][2,3]benzodiazepine, reference compound]
CD1 mice [1]; [14]
  ED50: 4.9 mg/kg
CD1 mice [1]; [15]
  ED50: 8.6 mg/kg
CD1 mice [2]
  ED50: 16.8 mg/kg
CD1 mice [3]
  ED50: 17.4 mg/kg
CD1 mice [4]
  ED50: 23.9 mg/kg
CD1 mice [5]
  ED50: 14.6 mg/kg
CD1 mice [6]
  ED50: 22.7 mg/kg
CD1 mice [7]
  ED50: 17.1 mg/kg
CD1 mice [8]
  ED50: 13.4 mg/kg
CD1 mice [9]
  ED50: 2.3 mg/kg
Lewis rats [10]; 30 mg/kg ip., female rats
  Neurological symptoms (change, %): −41%
Lewis rats [10]; 30 mg/kg ip., male rats
  Neurological symptoms (change, %): −26%
Lewis rats [10]; [16]
  change in vivo at 15 mg/kg: -60%
Lewis rats [10]; [17]
  change in vivo at 15 mg/kg: -63%
Lewis rats [10]; [18]
  change in vivo at 15 mg/kg: -8%
Lewis rats [10]; [19]
  change in vivo at 15 mg/kg: 7%
Lewis rats [10]; 30 mg/kg ip., female rats, 0-8 day
  change in vivo at 30 mg/kg: -38%
Lewis rats [10]; 30 mg/kg ip., female rats, 0-14 day
  change in vivo at 30 mg/kg: -27%
Lewis rats [10]; 30 mg/kg ip., male rats, 0-8 day
  change in vivo at 30 mg/kg: -43%
Lewis rats [10]; 30 mg/kg ip., male rats, 0-14 day
  change in vivo at 30 mg/kg: -29%
Lewis rats [11]; 30 mg/kg ip., female rats
  Histological symptoms (change, %): −16%
Lewis rats [11]; 30 mg/kg ip., male rats
  Histological symptoms (change, %): +34%
CD1 mice [12]
  ED50: 5.6 mg/kg
CD1 mice [13]
  ED50: 10.6 mg/kg
BN rats
  BALF eosinophil number: 1.29 ± 0.11 ×10^6/ml

## Cc1nnc(N2N=C(c3ccc(N)cc3)c3cc4c(cc3C[C@H]2C)OCO4)s1 [Example 86, (R)-5-(4-Aminophenyl)-8-methyl-7-(5-methyl-1,3,4-thiadiazol-2-yl)-8,9-dihydro-7H-1,3-dioxolo-[4,5-h][2,3]benzodiazepine]
CD1 mice [1]; [14]
  ED50: 4.3 mg/kg
CD1 mice [1]; [15]
  ED50: 6.1 mg/kg
CD1 mice [2]
  ED50: 10 mg/kg
CD1 mice [3]
  ED50: 10.6 mg/kg
CD1 mice [4]
  ED50: 11.2 mg/kg
CD1 mice [5]
  ED50: 4.6 mg/kg
CD1 mice [6]
  ED50: 16.5 mg/kg
CD1 mice [7]
  ED50: 4 mg/kg
CD1 mice [8]
  ED50: 3.9 mg/kg
CD1 mice [9]
  ED50: 0.8 mg/kg
Lewis rats [10]; 1.875 mg/kg ip., female rats
  Neurological symptoms (change, %): −42%
Lewis rats [10]; 1.875 mg/kg ip., male rats
  Neurological symptoms (change, %): +54%
Lewis rats [10]; 3.75 mg/kg ip., female rats
  Neurological symptoms (change, %): −21%
Lewis rats [10]; 3.75 mg/kg ip., male rats
  Neurological symptoms (change, %): −72%
Lewis rats [10]; 7.5 mg/kg ip., female rats
  Neurological symptoms (change, %): −62%
Lewis rats [10]; 7.5 mg/kg ip., male rats
  Neurological symptoms (change, %): −66%
Lewis rats [10]; 15 mg/kg ip., female rats
  Neurological symptoms (change, %): −85%
Lewis rats [10]; 15 mg/kg ip., male rats
  Neurological symptoms (change, %): −67%
Lewis rats [10]; 1.875 mg/kg ip., female rats, 0-8 day
  change in vivo at 1.875 mg/kg: -40%
Lewis rats [10]; 1.875 mg/kg ip., female rats, 0-14 day
  change in vivo at 1.875 mg/kg: -39%
Lewis rats [10]; 1.875 mg/kg ip., male rats, 0-8 day
  change in vivo at 1.875 mg/kg: 5%
Lewis rats [10]; 1.875 mg/kg ip., male rats, 0-14 day
  change in vivo at 1.875 mg/kg: -8%
Lewis rats [10]; 3.75 mg/kg ip., female rats, 0-8 day
  change in vivo at 3.75 mg/kg: -3%
Lewis rats [10]; 3.75 mg/kg ip., female rats, 0-14 day
  change in vivo at 3.75 mg/kg: -18%
Lewis rats [10]; 3.75 mg/kg ip., male rats, 0-8 day
  change in vivo at 3.75 mg/kg: -70%
Lewis rats [10]; 3.75 mg/kg ip., male rats, 0-14 day
  change in vivo at 3.75 mg/kg: -77%
Lewis rats [10]; 7.5 mg/kg ip., female rats, 0-8 day
  change in vivo at 7.5 mg/kg: -62%
Lewis rats [10]; 7.5 mg/kg ip., female rats, 0-14 day
  change in vivo at 7.5 mg/kg: -66%
Lewis rats [10]; 7.5 mg/kg ip., male rats, 0-8 day
  change in vivo at 7.5 mg/kg: -65%
Lewis rats [10]; 7.5 mg/kg ip., male rats, 0-14 day
  change in vivo at 7.5 mg/kg: -70%
Lewis rats [10]; [16]
  change in vivo at 15 mg/kg: -97%
Lewis rats [10]; [17]
  change in vivo at 15 mg/kg: -85%
Lewis rats [10]; [18]
  change in vivo at 15 mg/kg: -93%
Lewis rats [10]; [19]
  change in vivo at 15 mg/kg: -67%
Lewis rats [10]; result in words
  Activity compared to the reference compound (histopathological and pharmacological investigations): more active than the reference compound GYKI 53773
Lewis rats [11]; 1.875 mg/kg ip., female rats
  Histological (histopathological) symptoms (change, %): −15%
Lewis rats [11]; 1.875 mg/kg ip., male rats
  Histological symptoms (change, %): −25%
Lewis rats [11]; 3.75 mg/kg ip., female rats
  Histological (histopathological) symptoms (change, %): −20%
Lewis rats [11]; 3.75 mg/kg ip., male rats
  Histological symptoms (change, %): +4%
Lewis rats [11]; 7.5 mg/kg ip., female rats
  Histological symptoms (change, %): −22%
Lewis rats [11]; 7.5 mg/kg ip., male rats
  Histological symptoms (change, %): +1%
Lewis rats [11]; 15 mg/kg ip., female rats
  Histological symptoms (change, %): −53%
Lewis rats [11]; 15 mg/kg ip., male rats
  Histological symptoms (change, %): −66%
CD1 mice [12]
  ED50: 4.3 mg/kg
CD1 mice [12]; oxotremorine, GYKI 20039 and harmaline, result in words
  Anti-tremor activity compared to the reference compounds: more active than the reference compounds GYKI 53773 and GYKI 52466
CD1 mice [13]
  ED50: 6.8 mg/kg
BN rats
  BALF eosinophil number: 1.32 ± 0.32 ×10^6/ml
